Values of other authors, collected in the CATMoS acute toxicity set (Mansouri et al. 2021).
Values joined by “and” are separate entries in the source; they are usually repeats but may differ in a detail not shown here. Identical values can stand only once.

Assay: rat acute oral toxicity
Settings: in vivo
From the text: […]The data set underlying the modeling effort for this project was initially compiled by NICEATM and U.S. EPA’s CCTE. Briefly, LD50 data were collected from rat acute oral systemic toxicity tests, including limit tests, ranges/confidence intervals, and discrete LD50 values. The full data set included 21,200 LD50 entries for 15,688 substances. […] Data were reviewed to ensure that LD50 values with obvious errors in the extracted data such as unit conversion errors (e.g., comma and decimal separator misplacements) were either fixed or removed. After this review, 16,209 LD50 values remained. Many of the chemicals represented had multiple LD50 entries, requiring that a single representative value per Chemical Abstracts Service Registry Number (CASRN) identifier be defined to facilitate modeling efforts. Based on ATWG feedback and to define the representative LD50 as a protective value while accounting for the distribution across multiple LD50s, the median of the lowest quartile was computed using only discrete LD50 values (omitting limit test data and range and confidence interval data). A detailed summary of the data compilation is available online on the NICEATM webpage dedicated to the collaborative modeling project (NTP 2020).
[…][…] For categorical designations, limit test and range/confidence interval LD50 data were integrated wherever possible. As such, the number of chemicals with end point values/calls varies across the modeling end points (Table 3) based on whether chemicals had representative LD50 values and/or other data. If a chemical had both, the representative value was used to determine categorical calls rather than limit test data. Some data were useable only for certain end points and categories depending on the thresholds. For example, ranges that spanned multiple hazard categories were considered only for the binary (very toxic/nontoxic) end points and omitted from rendering a determination for hazard category assignment.
[…]The final data set comprising 11,992 chemicals was split into training and evaluation sets […], respectively. This process was performed semirandomly by ordering chemicals based on the five end points (categorical and continuous LD50 values) and partitioning every fourth record into the evaluation set accordingly. This approach was taken to ensure an equivalent distribution of the LD50 values and the different hazard categories between the training and the evaluation sets without supervised sampling of the chemicals based on structures (Figure 1A). The sources of the chemical structures were also kept equivalent between the two sets, with chemical structures obtained from DSSTox, being the highest quality, representing over 75% of each set (Figure 1B).

Compound | LD50
CC(=O)c1ccc2c(c1)N(CCCN1CCOCC1)c1ccccc1S2 | 2500 mg/kg
CCOC(=O)N(Cc1ccccc1)C1CC1 | 1380 mg/kg
O=C1NC(=O)C(c2ccccc2)(c2ccccc2)N1 | 1530 mg/kg
Cc1c(-c2ccccc2)oc2c(C(=O)OCCN3CCCCC3)cccc2c1=O | 1440 mg/kg and 1040 mg/kg
CC(C)(COCC1CO1)COCC1CO1 (stereo not drawn) | 4500 mg/kg
CCCCCCCC/C=C\CCCCCCCC(=O)NCCS(=O)(=O)O | 4000 mg/kg
ClCC1(CCl)COC1 | 600 mg/kg
CCCCCCCCCCOC(=O)C[N+](C)(C)CCSCC[N+](C)(C)CC(=O)OCCCCCCCCCC | 2660 mg/kg
CC(C)NCC1CCc2cc(CO)c([N+](=O)[O-])cc2N1 (stereo not drawn) | 30 mg/kg
CCCCCCCCCc1ccc(O)cc1 | 1620 mg/kg
CCSSCC | 2030 mg/kg
NC1(C(=O)O)CCCC1 | 290 mg/kg and 260 mg/kg
COc1cc2c(cc1OC)C1CC(=O)C(CCC#N)CN1CC2 (stereo not drawn) | 620 mg/kg
O=c1c2nocc2c(-c2ccccc2)nn1-c1ccccc1 | 1000 mg/kg
CC1(C)[C@@H]2CC[C@@]1(C)[C@H](OC(=O)CSC#N)C2 | 1000 mg/kg
Cc1cccc(C)c1N(Cn1cccn1)C(=O)CCl | 1000 mg/kg
O=C1C(Cl)=C(Cl)C(=O)C1=C(Cl)Cl | 2300 mg/kg
COCC(=O)O | 1000 mg/kg
CCSc1nnc(C(C)(C)C)c(=O)n1N | 599 mg/kg
COP(=S)(OC)OC1C2(C)CCC(C2)C1(C)C (stereo not drawn) | 250 mg/kg
CCS(=O)CC(C)SP(=O)(OC)OC (stereo not drawn) | 89 mg/kg
Nc1ncc2[nH]cnc2n1 | 723 mg/kg
COc1cc(C(=O)c2ccc(Cl)cc2)cc(OC)c1OCCN1CCOCC1 | 1290 mg/kg
O=C(O)COc1nn(Cc2ccccc2)c2ccccc12 | 1200 mg/kg

Compound | LD50
O=[N+]([O-])OC1COC2C(O)COC12 (stereo not drawn) | 2300 mg/kg
COc1cc(C(=O)Oc2c(CCC(C)=O)c(=O)n(-c3ccccc3)n2-c2ccccc2)cc(OC)c1OC | 3000 mg/kg
CC(=O)Nc1cc(Cl)c([N+](=O)[O-])cc1Cl | 2830 mg/kg
Cn1c(CCCC(=O)O)nc2cc(N(CCCl)CCCl)ccc21 | 200 mg/kg
Cc1cccc(C)c1CCNC(N)=O | 1500 mg/kg
C=CCNP(=O)(OC=C(Cl)Cl)OCCCl (stereo not drawn) | 25 mg/kg
Cc1ccc2c(Cl)cc(Cl)c(O)c2n1 | 660 mg/kg
O=C(Oc1ccccc1)c1ccccc1C(=O)Oc1ccccc1 | 8000 mg/kg
CC(C)(C)C(O)/C(=C\c1ccc(Cl)cc1Cl)n1cncn1 (stereo not drawn) | 474 mg/kg
COP(=S)(NC(C)C)Oc1ccc(Cl)cc1Cl (stereo not drawn) | 270 mg/kg
CCOC(=O)C=CC(=O)OCC | 3200 mg/kg
CN1[C@@H]2CC[C@H]1C[C@@H](OC(c1ccccc1)c1ccccc1)C2 | 940 mg/kg
Fc1ccc([C@@H]2CCNC[C@H]2COc2ccc3c(c2)OCO3)cc1 | 415 mg/kg
C=C(C)C(=O)OCC(=O)OCC | 7880 mg/kg
CC(C(=O)O)c1ccc2c(c1)C(=O)Cc1ccccc1O2 (stereo not drawn) | 106 mg/kg
CCC(C(=O)c1ccc2[nH]c(=O)ccc2c1)N1CCN(c2cccc(Cl)c2)CC1 (stereo not drawn) | 500 mg/kg
CN1C2CCC1CC(OC(=O)C(C)(CO)c1ccccc1)C2 (stereo not drawn) | 1100 mg/kg
C=C(C)C(=O)OCCC#N | 7330 mg/kg
CCOP(=S)(CCl)Oc1ccc([N+](=O)[O-])cc1 (stereo not drawn) | 127 mg/kg
C=CC(=O)OCC(CO)(COC(=O)C=C)COC(=O)C=C | 1830 mg/kg
Cc1cc(C(C)(C)C)c(OB(OC(C)C)OC(C)C)c(C(C)(C)C)c1 | 5200 mg/kg
CC(=O)Nc1ccc(/N=N/c2c(S(=O)(=O)O)cc3cc(S(=O)(=O)O)cc(NC(C)=O)c3c2O)cc1 | 23200 mg/kg
CCCCCCCCCCCCOCC(O)COS(=O)(O)=S (stereo not drawn) | 1820 mg/kg
Cc1ncc(CSSCc2cnc(C)c(O)c2CO)c(CO)c1O | 6000 mg/kg

Compound | LD50
CN1[C@@H]2CCC[C@H]1C[C@@H](NC(=O)c1nn(C)c3ccccc13)C2 | 350 mg/kg
CC(C)=CCCC(C)CCOC=O (stereo not drawn) | 8400 mg/kg
CC[C@H]1CCCC(O[C@H]2CC[C@H](N(C)C)[C@@H](C)O2)[C@@H](C)C(=O)C2=C[C@@H]3[C@@H](C=C[C@@H]4C[C@@H](O[C@@H]5O[C@@H](C)[C@H](OC)[C@@H](OC)[C@H]5OC)C[C@@H]34)[C@@H]2CC(=O)O1 (stereo partly drawn) | 3740 mg/kg
CCC(C)(O)c1ccccc1 (stereo not drawn) | 1400 mg/kg
Cc1ccc(C(C)C)cc1 | 4750 mg/kg
Nc1cc(S(=O)(=O)O)cc2cc(S(=O)(=O)O)c(/N=N\c3ccc(-c4ccc(/N=N/c5c(S(=O)(=O)O)cc6cc(S(=O)(=O)O)cc(N)c6c5O)cc4)cc3)c(O)c12 | 8760 mg/kg
C=CCc1ccc(OC)cc1 | 1230 mg/kg
CCOC(=O)C1=C(COCCOCCN)NC(C)=C(C(=O)OC)[C@@H]1c1cccc(Cl)c1Cl | 136 mg/kg
C=COCCO | 3910 mg/kg
COc1cc2ccc(=O)oc2cc1O | 3800 mg/kg
CCC1(CC)C(=O)NCC(C)C1=O (stereo not drawn) | 860 mg/kg
CCOC(=O)C1=CN(C)C2CCCC(C)N2C1=O (stereo not drawn) | 378 mg/kg
Cc1cc(=O)[nH]c(=O)[nH]1 | 64500 mg/kg
OC[C@@H](O)[C@@H](O)[C@H](O)[C@@H](O)CO | 15900 mg/kg
CN(C)CCCN1c2ccccc2C(C)(C)c2ccccc21 | 1670 mg/kg and 1850 mg/kg
NCCCCCCNCCCCCCN | 450 mg/kg
C=CC(=O)NC(C)C | 375 mg/kg
Cc1ccnc(C)c1 | 200 mg/kg
C1OCC(COCC2COCO2)O1 (stereo not drawn) | 5150 mg/kg
FC(F)(F)c1ccc(Cl)cc1 | 13000 mg/kg
BrCC(Br)C1CCC(Br)C(Br)C1 (stereo not drawn) | 3220 mg/kg
CCOP(=O)(OCC)Oc1ccc(Cl)cc1Cl | 100 mg/kg
CC(CN(C)C)CN1c2ccccc2Sc2ccccc21 (stereo not drawn) | 210 mg/kg
CCNc1nc(NC(C)(C)C)nc(OC)n1 | 433 mg/kg

Compound | LD50
COc1ccc(N)c([N+](=O)[O-])c1 | 14100 mg/kg
CCOC(=O)C(=O)NP(=O)(OC)SC (stereo not drawn) | 501 mg/kg
CCN(CC)N=Nc1cccnc1 | 210 mg/kg
Cc1cn(-c2cc(N)cc(C(F)(F)F)c2)cn1 | 50 mg/kg
Clc1ccc(N2CCN(C/C=C/c3ccccc3)CC2)nn1 | 483 mg/kg
CCCCC(CC)COCCCN (stereo not drawn) | 320 mg/kg
N#Cc1cc2[nH]c(C(F)(F)F)nc2c(Cl)c1Cl | 3960 mg/kg
CCOC(=O)C(Cl)=NNc1ccccc1 | 13000 mg/kg
CCCN(CCC)CCCCCCCCNC(=O)Oc1ccc2c(c1)[C@]1(C)CCN(C)[C@@H]1N2C | 18.3 mg/kg
CCOP(=S)(OCC)SC(C(=O)OCCF)c1ccccc1 (stereo not drawn) | 5 mg/kg
Cc1cc(C=Cc2ccc3cc(N(C)C)ccc3[n+]2C)c(C)n1-c1ccccc1 | 161 mg/kg
NCCOCCN | 961 mg/kg
CCCN(CCC)C(=O)SCc1ccccc1 | 1820 mg/kg
CC(=O)OCCC1CCCCC1 | 3200 mg/kg
COc1ccc2c3c1O[C@H]1[C@@H](OC(=O)c4cccnc4)C=C[C@H]4[C@@H](C2)N(C)CC[C@@]341 | 840 mg/kg
CC(=O)Oc1ccccc1C(=O)OC(=O)c1ccccc1OC(C)=O | 2200 mg/kg
CCN(CC)CC#CC(C)(C)OC(=O)C(O)(c1ccccc1)C1CCCCC1 (stereo not drawn) | 735 mg/kg
C=CCNC(=O)ON=C1SCOC1C (stereo not drawn) | 453 mg/kg
COC(=O)c1ccc2nc(C(F)(F)F)[nH]c2c1 | 22.3 mg/kg
O=C(O)COc1ccc2ccccc2c1 | 600 mg/kg
FC(F)(F)C(F)(F)C(F)(F)C(F)(F)C(F)(F)C(F)(F)C(F)(F)C[n+]1ccccc1 | 1160 mg/kg
CCB(CC)CC | 235 mg/kg
NS(=O)(=O)CCNC(=O)N(CCCl)N=O | 40 mg/kg
CCOC(=O)C(C)Oc1ccc(Oc2nc3ccc(Cl)cc3s2)cc1 (stereo not drawn) | 907 mg/kg

Compound | LD50
CC(C)(C)N(NC(=O)c1ccc(Cl)cc1)C(=O)c1ccccc1 | 2850 mg/kg
C=C[Si](Cl)(Cl)CC | 2830 mg/kg
O=C1CCc2cc(CCCCN3CCN(c4ccccc4Cl)CC3)ccc2N1 | 500 mg/kg
CCC(C)OC(CBr)c1cccc(Cl)c1 (stereo not drawn) | 250 mg/kg
COP(=O)(OC)SCn1c(=O)oc2cc(Cl)cnc21 | 1180 mg/kg
CN(C)CCCn1c2ccccc2c(=O)c2c([N+](=O)[O-])cccc21 | 53.3 mg/kg
C[N+](C)(C)Cc1ccccc1 | 25 mg/kg
O=C(O)Cc1cc(O)ccc1Nc1c(Cl)cccc1Cl | 1430 mg/kg
ClC1=C(Cl)[C@]2(Cl)[C@@H]3C[C@@H](Cl)[C@@H](Cl)[C@@H]3[C@@]1(Cl)C2(Cl)Cl (racemic) | 500 mg/kg
COP(=S)(OC)Oc1cc(Cl)c([N+](=O)[O-])c(Cl)c1 | 750 mg/kg
Cc1c(Cl)c(Cl)c(Cl)c(C(Cl)Cl)c1Cl | 2920 mg/kg
COc1ccc(CCN(C)CCc2ccc(OC)c(OC)c2)cc1OC | 178 mg/kg
CC(=O)OCC=C(C)C | 2900 mg/kg
O=C(CF)NNc1ccccc1 | 9.1 mg/kg
CCCCC(CC)COC(C[n+]1ccccc1)c1ccc(C2CCCCC2)cc1 (stereo not drawn) | 250 mg/kg
C=CCN(CC=C)C(=O)CSP(=S)(OCC)OCC | 48 mg/kg
O=C(Cc1cccs1)N[C@@H]1C(=O)N2C(C(=O)[O-])=C(C[n+]3ccccc3)CS[C@H]12 | 2500 mg/kg
O=C(O)CCCCCCCl | 1800 mg/kg
O=NN1CCCCCC1 | 336 mg/kg
CCCCCOC(=S)S | 1000 mg/kg
Clc1nc(Cl)nc(Nc2ccccc2Cl)n1 | 2700 mg/kg
COC(=O)C1=C(C)NC(C)=C(C(=O)OCC(C)=O)C1c1ccccc1[N+](=O)[O-] (stereo not drawn) | 1460 mg/kg
